Source: patent US20230355647A1, “Marker for determining anti-cancer effects of mitochondrial oxidative phosphorylation pathway inhibitor” (NANJING SHIJIANG MEDICINE TECHNOLOGY CO., LTD, priority 2020, published 2023)
pIC50: −log10 of the molar value.

How the values were obtained:
[1] = test system: SU-DHL-2; test: Cell viability (CellTiter-Glo), SU-DHL-2; type: cell-based; conditions: Homo sapiens; SU-DHL-2 cell line, 3-4 days of culture
Experimental: (§1) Cell viability was detected using the Promega CellTiter-Glo kit, the kit reflected cell viability by directly measuring intracellular ATP content. The inhibitory effect (IC50 value) of Gboxin, a mitochondrial oxidative phosphorylation pathway inhibitor, on different tumor cell lines was tested in the Example. The name, source, and culture condition of each tumor cell line were as follows:
Cell line SU-DHL-2 (ATCC, No. CRL-2956) was cultured in 10% fetal bovine serum-containing RPMI1640 medium (+P/S).
(§2) The above tumor cells were cultured in the relevant medium (+P/S), and incubated for 3 h, then the gradient diluted Gboxin was added, and IC50 (50% inhibiting concentration) was measured after 3-4 days of culture.

[2] = test system: SW48; test: Cell viability (CellTiter-Glo), SW48; type: cell-based; conditions: Homo sapiens; SW48 cell line, 3-4 days of culture
Experimental: as §1, with “follows: Cell line SW48 (ATCC, No. CCL-231) was cultured in 10% fetal bovine serum-containing Leibovitz's L-15 medium (+P/S). […] Cell viability was detected using the Promega CellTiter-Glo kit, the kit reflected cell viability by directly measuring intracellular ATP content.” for “follows:”

[3] = test system: G-402; test: Cell viability (CellTiter-Glo), G-402; type: cell-based; conditions: Homo sapiens; G-402 cell line, 3-4 days of culture
Experimental: as §1
Cell line G-402 (ATCC, No. CRL-1440) was cultured in 10% fetal bovine serum-containing McCoy's 5a medium (+P/S).
as §2

[4] = test system: U-937; test: Cell viability (CellTiter-Glo), U-937; type: cell-based; conditions: Homo sapiens; U-937 cell line, 3-4 days of culture
Experimental: as §1
Cell line U-937 (ATCC, No. CRL-1593.2) was cultured in 10% fetal bovine serum-containing RPMI1640 medium (+P/S).
as §2

[5] = test system: NCI-H1793; test: Cell viability (CellTiter-Glo), NCI-H1793; type: cell-based; conditions: Homo sapiens; NCI-H1793 cell line, 3-4 days of culture
Experimental: as §1
Cell line NCI-H1793 (ATCC, No. CRL-5896) was cultured in 5% fetal bovine serum-containing HITES medium (+P/S).
as §2

[6] = test system: ACHN; test: Cell viability (CellTiter-Glo), ACHN; type: cell-based; conditions: Homo sapiens; ACHN cell line, 3-4 days of culture
Experimental: as §1
Cell line ACHN (ATCC, No. CRL-1611) was cultured in 10% fetal bovine serum-containing EMEM medium (+P/S).
as §2

[7] = test system: NCI-H1651; test: Cell viability (CellTiter-Glo), NCI-H1651; type: cell-based; conditions: Homo sapiens; NCI-H1651 cell line, 3-4 days of culture
Experimental: as §1
Cell line NCI-H1651 (ATCC, No. CRL-5884) was cultured in 10% fetal bovine serum-containing ACL-4 medium (+P/S).
as §2

[8] = test system: CFPAC-1; test: Cell viability (CellTiter-Glo), CFPAC-1; type: cell-based; conditions: Homo sapiens; CFPAC-1 cell line, 3-4 days of culture
Experimental: as §1, with “follows: Cell line CFPAC-1 (ATCC, No. CRL-1918) was cultured in 10% fetal bovine serum-containing IMDM medium (+P/S). […] Cell viability was detected using the Promega CellTiter-Glo kit, the kit reflected cell viability by directly measuring intracellular ATP content.” for “follows:”

[9] = test system: 786-O; test: Cell viability (CellTiter-Glo), 786-O; type: cell-based; conditions: Homo sapiens, 786-0; 786-O cell line, 3-4 days of culture
Experimental: as §1, with “follows: Cell line 786-O (ATCC, No. CRL-1932) was cultured in 10% fetal bovine serum-containing RPMI1640 medium (+P/S). […] Cell viability was detected using the Promega CellTiter-Glo kit, the kit reflected cell viability by directly measuring intracellular ATP content.” for “follows:”

[10] = test system: mitochondrial oxidative phosphorylation pathway; test: Oxygen consumption of NCI-H82 cell, Seahorse XFe metabolic analyzer; type: cell-based, human; conditions: 2 μM inhibitor, detection within 0.5 h, compared with control group, FIG. 1 (n=3)
From the text: The oxygen was mainly consumed by mitochondrial oxidative phosphorylation pathway in the cell, thus the determination of oxygen consumption rate (OCR) of mitochondria could directly reflect the activity of mitochondrial oxidative phosphorylation pathway. The oxygen consumption of NCI-H82 cell in the presence or absence of Oligomycin A, Gboxin, S-Gboxin and IACS-010759, mitochondrial oxidative phosphorylation pathway inhibitors, was detected using Seahorse XFe metabolic analyzer in the present Example. NCI-H82 cell (ATCC, No. […] The control group in absence of mitochondrial oxidative phosphorylation pathway inhibitor was set. The detection of cell oxygen consumption was finished within 0.5 h.

[11] = test system: ATF4 stress pathway; test: Western Blot of ATF4 in tumor cells after inhibitor treatment; type: cell-based, human; conditions: 1 μM or 3 μM Gboxin, 1 μM Oligomycin A, 12 h; for activity of ATF4 stress pathway: FIG. 3; for ATF4 stress pathway (ATF4 content): FIG. 2
Experimental: The inhibition of mitochondrial oxidative phosphorylation pathway could cause the activation of ATF4 stress pathway and the decrease of mTOR pathway activity, the activity of the mTOR pathway was reflected by the expression level of phosphorylated ribosomal protein S6 (ie, p-S6).
(§3) The tumor cells NCI-H82, G-401 and WSU-DLCL2 were cultured in the relevant 10% FBS-containing medium (+p/s), and incubated overnight, then 1 μM Gboxin, 3 μM Gboxin or 1 μM Oligomycin A as shown in FIG. 2 was added. After 12 h of incubation, the content of ATF4 and p-S6 protein was detected using Western Blot, the experiment result was shown in FIG. 2.
as §3, with “The cell lines SF126, CFPAC-1” for “The tumor cells NCI-H82, G-401”, “and 786-O” for “and WSU-DLCL2”, “FIG. 3” for “FIG. 2”, “FIG. 3.” for “FIG. 2.”

## CCc1n(CC(=O)O[C@@H]2C[C@H](C)CC[C@H]2C(C)C)c2ccccc2[n+]1C.[Cl-] [Gboxin]
[1]
  pIC50: 6.01
[2]
  pIC50: 5.81
[3]
  pIC50: 5.55
[4]
  pIC50: 5.39
[5]
  pIC50: 4.80
[6]
  pIC50: 4.78
[7]
  pIC50: 4.65
[8]
  pIC50: < 4.52
[9]
  pIC50: < 4.52
[10]
  oxygen consumption of NCI-H82 cells: significantly inhibit
[11]; 786-O cells
  activity of ATF4 stress pathway: no significant changes
[11]; CFPAC-1 cells
  activity of ATF4 stress pathway: no significant changes
[11]; G-401 cells
  ATF4 stress pathway (ATF4 content): up-regulated
[11]; NCI-H82 cells
  ATF4 stress pathway (ATF4 content): up-regulated
[11]; SF126 cells
  activity of ATF4 stress pathway: no significant changes
[11]; WSU-DLCL2 cells
  ATF4 stress pathway (ATF4 content): up-regulated
